In patent publication US8058258B2, “Methods for cancer therapy and stem cell modulation” (Agency for Science, Technology and Research, priority 2006, dated 2011):

Key:
[1] = test system: PRC2 target genes TGFBI, KRT17, FBXO32, ANXA8, DLX2; experiment: Real-time RT-PCR of representative PRC2 targets in MCF-7 cells; assay type: cell-based, human
Experimental: I: MCF-7 cells were untreated or treated with 3-deazaneplanocin (DZNep), 5-azacytidine (5-AzaC) or a combination of 5-azacytidine and trichostatin A (AZA+TSA), and RNA was isolated for gene expression analysis.
Cells were maintained in DMEM supplemented with 10% fetal bovine serum with glutamine, penicillin, and streptomycin. For drug treatment, cells were seeded the day before the drug treatment. Cells were treated with 5 μM 3-Deazaneplanocin A or 2 μM 5-aza-2′-deoxycytidine (5-AzaC; Sigma) for 72 hours and trichostatin A (TSA; Sigma) at 100 nM for 24 hours. For co-treatment of cells with 5-AzaC and TSA, 5-Aza was added for 48 hours and followed by TSA for 24 hours.
Total RNA was isolated from cell lines using Trizol (Invitrogen) and was converted to cDNA using an RNA Amplification kit (Ambion). […] Quantitative real-time PCR was performed on a PRISM 7900 sequenced detector (Applied Biosystems) using TaqMan probes (Applied Biosystems). Samples were normalized to the levels of 18S ribosomal RNA.
The array results were further confirmed by real-time RT-PCR for representative PRC2 targets.

[2] = test system: mRNA of EZH2, SUZ12 and EED; experiment: RT-PCR of mRNA levels of PRC2 proteins; assay type: cell-based; conditions: HCT116 cells, after 3-deazaneplanocin treatment
Experimental: FIG. 1B depicts the analysis of the mRNA levels of the PRC2 proteins EZH2, SUZ12, and EED by reverse transcription (RT-PCR) before (-) and after (+)3-deazaneplanocin treatment. HCT116 cells were treated as in (a) and total RNA was isolated for RT-PCR analysis GAPDH served as a control. […] Accordingly, trimethylation of histone 3 at […] In contrast, histone H3 methylation at […] (H3-K9) was not affected by 3-deazaneplanocin treatment.

BT-549 cells = experiment: Apoptotic response time course by FACS analysis; assay type: cell-based; conditions: BT-549, 5 μM, time course to 120 hours
Experimental: (§1) FIG. 6A depicts an analysis of the breast cancer cell lines MCF-7, MB-468, SK-BR-3, MB-231, T47D and BT549 for an apoptotic effect of 5 μM 3-deazaneplanocin over a time frame of 120 hours. Cell death was measured by FACS analysis. Data presented are the average of three independent experiments.
(§2) Cells were trypsinised and washed with PBS and fixed in 70% ethanol and processed for propidium iodide staining and FACS analysis. For the caspase 3 activity assay and mitochondrial membrane potential detection, cells were stained with anti-active caspase 3 and JC-1, respectively, according to the manufacturer's instructions (BD Bioscience).
(§3) To extend the observation seen in MCF-7 cells, additional breast cancer cell lines were screened, including MB-468, SK-BR-3, MB-231, T47D and BT549. […] To identify the PRC2 target genes associated with the cellular sensitivity to 3-deazaneplanocin, the array analysis was performed in these breast cancer cell lines before and after 3-deazaneplanocin treatment and the expression of the 47 identified PRC2 targets profiled. It was reasoned that some the PRC2 target genes might be differentially expressed between the sensitive and resistant cell lines, which might confer the distinct sensitivity to 3-deazaneplanocin. […] Both the real time and conventional RT-PCR analysis of the 4 gene set confirmed the array data (FIGS. 6D & 6E). […]

MB-231 cells = experiment: Apoptotic response time course by FACS analysis; assay type: cell-based; conditions: MB-231, 5 μM, time course to 120 hours
Experimental: as §1, §2, §3

[3] = explored for antiviral treatment; cited from earlier work
[4] = test system: PRC2 components SUZ12, EZH2 and EED; experiment: Western blot of PRC2 protein levels after drug treatment; assay type: cell-based, human; conditions: HCT116 or MCF-7 cells, 5 μM, 48 and 72 hours
Experimental: Cell lines used in these examples were purchased from the American Type Culture Collection (Manassas, Va.). Cells were maintained in DMEM supplemented with 10% fetal bovine serum with glutamine, penicillin, and streptomycin. For drug treatment, cells were seeded the day before the drug treatment. Cells were treated with 5 μM 3-Deazaneplanocin A or 2 μM 5-aza-2'-deoxycytidine (5-AzaC; Sigma) for 72 hours and trichostatin A (TSA; Sigma) at 100 nM for 24 hours. For co-treatment of cells with 5-AzaC and TSA, 5-Aza was added for 48 hours and followed by TSA for 24 hours. Cell pellets were first lysed in RadioImmuno Precipitation Assay (RIPA) buffer, consisting of an aqueous solution of 25 mM Tris-HCl pH 7.6, 150 mM NaCl, 1% Nonidet-P 40 (NP-40), 1% sodium deoxycholate and 0.1% sodium dodecylsulfate (SDS), before further sonicated using a tissue homogeniser to release all the proteins. Equal amounts of protein were separated on SDS-polyacrylamide gels and transferred to polyvinylidene difluoride (PVDF) membranes. The blots were probed with antibodies against: EED (07-368), SUZ12 (07-379), SUV39H1 (07-550), BMI1 (05-637), tri-methylated H3-K27 (07-449), tri-methylated H3-K9 (07-442) and Acetyl-Histone H3 (06-599), and were purchased from Upstate. EZH2 (AC22) and Histone H3 (3H1) were from Cell Signaling. […]

Nc1nccc2c1ncn2C1C=C(CO)C(O)C1O (stereo not shown) [3-deazaneplanocin, 5-(4-amino-1H-imidazo[4,5-c]pyridin-1-yl)-3-(hydroxymethyl)-3-cyclopentene-1,2-diol]
expression of ANXA8 and DLX2 (real-time RT-PCR) [1]: activated | induction of TGFBI, KRT17 and FBX032 (real-time RT-PCR) [1]: only induced | mRNA levels of each of the PRC2 proteins (RT-PCR) [2]: remained unchanged | sensitivity to 3-deazaneplanocin-induced cell death (BT-549 cells): highly resistant | sensitivity to 3-deazaneplanocin-induced cell death (MB-231 cells): highly resistant | toxicity in vivo [3]: minimal toxicity | protein levels of PRC2 components SUZ12, EZH2 and EED [4]: dramatic decrease
